# Experimental data from patent US10214490B2, “Picolinamides as fungicides” (Dow AgroSciences LLC, priority 2016, dated 2019).
# Where two headings read alike, the source gives them in different places.
# Key:
# Type in all cases: in vivo
# Zymoseptoria tritici = assay: Fungicidal activity: leaf blotch of wheat (SEPTTR), disease control on wheat seedlings; conditions: for pest or weed control at 100 ppm / pest or weed control at 121.5 g/ha: Zymoseptoria tritici
# Experimental: Technical grades of materials were dissolved in acetone, which were then mixed with nine volumes of water containing 110 ppm Triton X-100. The fungicide solutions were applied onto wheat seedlings using an automated booth sprayer to run-off. All sprayed plants were allowed to air dry prior to further handling. All fungicides were evaluated using the aforementioned method for their activity vs. all target diseases, unless stated otherwise. Wheat leaf blotch and brown rust activity were also evaluated using track spray applications, in which case the fungicides were formulated as EC formulations, containing 0.1% Trycol 5941 in the spray solutions. Wheat plants (variety Yuma) were grown from seed in a greenhouse in 50% mineral soil/50% soil-less Metro mix until the first leaf was fully emerged, with 7-10 seedlings per pot. These plants were inoculated with an aqueous spore suspension of Zymoseptoria tritici either prior to or after fungicide treatments. After inoculation the plants were kept in 100% relative humidity (one day in a dark dew chamber followed by two to three days in a lighted dew chamber at 20° C.) to permit spores to germinate and infect the leaf. The plants were then transferred to a greenhouse set at 20° C. for disease to develop. When disease symptoms were fully expressed on the 1st leaves of untreated plants, infection levels were assessed on a scale of 0 to 100 percent disease severity. Percent disease control was calculated using the ratio of disease severity on treated plants relative to untreated plants.
# Puccinia triticina = assay: Fungicidal activity: wheat brown rust (PUCCRT), disease control on wheat seedlings
# Experimental: Technical grades of materials were dissolved in acetone, which were then mixed with nine volumes of water containing 110 ppm Triton X-100. The fungicide solutions were applied onto wheat seedlings using an automated booth sprayer to run-off. All sprayed plants were allowed to air dry prior to further handling. All fungicides were evaluated using the aforementioned method for their activity vs. all target diseases, unless stated otherwise. Wheat leaf blotch and brown rust activity were also evaluated using track spray applications, in which case the fungicides were formulated as EC formulations, containing 0.1% Trycol 5941 in the spray solutions. Wheat plants (variety Yuma) were grown from seed in a greenhouse in 50% mineral soil/50% soil-less Metro mix until the first leaf was fully emerged, with 7-10 seedlings per pot. These plants were inoculated with an aqueous spore suspension of Puccinia triticina either prior to or after fungicide treatments. After inoculation the plants were kept in a dark dew room at 22° C. with 100% relative humidity overnight to permit spores to germinate and infect the leaf. The plants were then transferred to a greenhouse set at 24° C. for disease to develop. Fungicide formulation, application and disease assessment followed the procedures as described in the Example A. Results of the evaluations are shown below in Table 4.
# Phakopsora pachyrhizi = assay: Fungicidal activity: Asian soybean rust (PHAKPA), disease control on soybean seedlings; conditions: High Volume at 25 ppm
# Experimental: Technical grades of materials were dissolved in acetone, which were then mixed with nine volumes of water containing 0.011% Tween 20. The fungicide solutions were applied onto soybean seedlings using an automated booth sprayer to run-off. All sprayed plants were allowed to air dry prior to further handling.
# Soybean plants (variety Williams 82) were grown in soil-less Metro mix, with one plant per pot. Two weeks old seedlings were used for testing. Plants were inoculated either 3 days prior to or 1 day after fungicide treatments. Plants were incubated for 24 h in a dark dew room at 22° C. and 100% relative humidity then transferred to a growth room at 23° C. for disease to develop. Disease severity was assessed on the sprayed leaves.
# [1] = HV activity at 100 ppm, 3 Day Curative
# [2] = HV activity at 100 ppm, 1 Day Protectant
# [3] = 24 h, LV activity at 121.5 g/H, 1 Day Protectant, read-out: SEPTTR 1DP disease control rating
# [4] = 72 h, LV activity at 121.5 g/H, 3 Day Curative, read-out: SEPTTR 3DC disease control rating
# [5] = Puccinia triticina, 24 h, LV activity at 121.5 g/H, 1 Day Protectant, read-out: PUCCRT 1DP disease control rating
# [6] = Puccinia triticina, 72 h, LV activity at 121.5 g/H, 3 Day Curative, read-out: PUCCRT 3DC disease control rating
# [7] = 24 h, 1 Day Protectant, read-out: PHAKPA 1DP disease control rating
# [8] = 72 h, 3 Day Curative, read-out: PHAKPA 3DC disease control rating
# [9] = LV activity at 121.5 g/H, 3 Day Curative
Structure (SMILES),pest or weed control at 121.5 g/ha (Zymoseptoria tritici; [3]),pest or weed control at 121.5 g/ha (Zymoseptoria tritici; [4]),pest or weed control at 121.5 g/ha (Puccinia triticina; [5]),pest or weed control at 121.5 g/ha (Puccinia triticina; [6]),pest or weed control at 25 ppm (Phakopsora pachyrhizi; [7]),pest or weed control at 25 ppm (Phakopsora pachyrhizi; [8]),also measured
COc1cc(F)ccc1[C@@H](Sc1ccccc1)[C@H](C)OC(=O)[C@H](C)NC(=O)c1nccc(OC)c1O [Compound 40],–,–,–,–,–,–,"pest or weed control at 100 ppm (Zymoseptoria tritici; 24 h, HV activity at 100 ppm, 1 Day Protectant, read-out: SEPTTR 1DP disease control rating): > 80%; pest or weed control at 100 ppm (Zymoseptoria tritici; 72 h, HV activity at 100 ppm, 3 Day Curative, read-out: SEPTTR 3DC disease control rating): > 80%; PUCCRT 3DC disease control rating (Puccinia triticina; [1]): A (>80); pest or weed control at 100 ppm (Puccinia triticina; Puccinia triticina, 24 h, HV activity at 100 ppm, 1 Day Protectant, read-out: PUCCRT 1DP disease control rating): > 80%"
COc1cc(F)ccc1[C@@H](Sc1ccccc1)[C@H](C)OC(=O)[C@H](C)NC(=O)c1nccc(OC)c1O [Compound 57],–,–,–,–,–,–,SEPTTR 1DP disease control rating (Zymoseptoria tritici; [2]): B (≤80); SEPTTR 3DC disease control rating (Zymoseptoria tritici; [1]): A (>80); PUCCRT 1DP disease control rating (Puccinia triticina; [2]): A (>80); PUCCRT 3DC disease control rating (Puccinia triticina; [1]): D (≤0)
COc1cc(F)ccc1[C@@H](Sc1ccccc1)[C@H](C)OC(=O)[C@H](C)NC(=O)c1nccc(OC)c1OC(C)=O [Compound 59],≤ 80%,≤ 80%,> 80%,–,–,–,–
COc1ccnc(C(=O)N[C@@H](C)C(=O)O[C@@H](C)[C@@H](c2ccccc2)S(=O)(=O)c2ccc(C)cc2)c1OC(C)=O [Compound 66],> 80%,≤ 80%,≤ 80%,≤ 80%,≤ 80%,≤ 80%,–
COc1ccnc(C(=O)N[C@@H](C)C(=O)O[C@@H](C)[C@@H](c2ccccc2)S(=O)(=O)c2ccc(C(F)(F)F)cn2)c1OC(C)=O [Compound 71],≤ 80%,≤ 80%,≤ 0%,≤ 80%,≤ 80%,≤ 80%,–
COc1ccnc(C(=O)N[C@@H](C)C(=O)O[C@@H](C)[C@H](Sc2ccccc2)c2ccccc2)c1OC(=O)OC(=O)C(C)C [Compound 79],> 80%,> 80%,> 80%,≤ 80%,≤ 80%,≤ 80%,–
COc1ccnc(C(=O)N[C@@H](C)C(=O)O[C@@H](C)[C@H](Sc2ccccc2)c2ccccc2)c1OC(=O)OC(C)=O [Compound 80],≤ 80%,≤ 80%,> 80%,≤ 80%,≤ 80%,≤ 80%,–
COc1ccnc(C(=O)N[C@@H](C)C(=O)O[C@@H](C)[C@H](Sc2ccc(F)cc2C)c2ccccc2)c1OC(C)=O [Compound 83],≤ 80%,–,–,≤ 0%,–,–,SEPTTR 3DC disease control rating (Zymoseptoria tritici; [9]): D (≤0)
COc1cc(F)ccc1[C@@H](Sc1ccccc1)[C@H](C)OC(=O)[C@H](C)NC(=O)c1nccc(OC)c1OC(C)=O [Compound 84],–,–,–,–,–,–,PUCCRT 3DC disease control rating (Puccinia triticina; [9]): B (≤80)
COc1ccnc(C(=O)N[C@@H](C)C(=O)O[C@@H](C)[C@H](Sc2ccccc2)c2ccc(F)cc2)c1OC(C)=O [Compound 85],–,–,–,≤ 0%,≤ 80%,≤ 0%,"SEPTTR 1DP disease control rating (Zymoseptoria tritici; LV activity at 121.5 g/H, 1 Day Protectant): B (≤80); SEPTTR 3DC disease control rating (Zymoseptoria tritici; [9]): D (≤0)"
